The text below walks through data of patent publication US11903914B2, “Applications for sulindac in preparing anti-lung cancer products” (SHANGHAI JIAO TONG UNIVERSITY, priority 2015, dated 2024).

What all share (type): cell-based
The subject of experiment [1] is SW900 lung cancer cells. The experiment is described as follows: CELLTITER-GLO luminescent cell viability assay, SW900 96-well drug screening plate. As to conditions: Homo sapiens, 72 hours. Here is the method: (§1) In example 1, CELLTITER-GLO was used to test sulindac against lung cancer
(§2) 1. Cell Plating • a) The complete medium required for each cell was prepared. • b) Before beginning the experiment, the name of the drug screened for the cells marked on the 100 mm petri dish was confirmed as well as information such as the passage time and number of passages to ensure the experiment was error-free. • c) Refer to steps d) through i) for procedures for adherent cells; refer to steps j) through l) for procedures for suspension cells. • d) When using aseptic technique, a vacuum pump was used to draw the cell culture medium. • e) 2 ml of a sterile PBS solution was used to rinse cell surfaces, and a vacuum pump was used to aspirate the PBS waste. • f) A 1 ml 0.25% (w/v) Trypsin-0.038% (w/v) EDTA solution was gently added to the petri dish for cell digestion, and after gently mixing several times, the solution covered the cell surfaces. […]

Experiment [2] deals with NCI-H720 lung cancer cells. As to the kind of experiment: CELLTITER-GLO luminescent cell viability assay, NCI-H720 96-well drug screening plate. The conditions noted are these: 72 hours. The method, then:
as §1, §2
(In general: Cellular ATP, detected with luciferase, serves as a proxy for viable cell number.)

Experiment [3] concerns LOVO (ATCC CCL-229) lung cancer cells. The experiment is described as follows: CELLTITER-GLO luminescent cell viability assay, LOVO cells (same method). As to conditions: Homo sapiens. Here is the method: as §2

By IC50 is commonly meant the concentration at which inhibition is half-maximal. Low values mean greater potency, high ones weaker potency. One may read the EC50 as the concentration that produces a half-maximal response. A higher EC50 goes with a less potent agent.

On to `CC1=C(CC(=O)O)c2cc(F)ccc2/C1=C\c1ccc([S+](C)[O-])cc1` (stereo not shown) [sulindac], for which the IC50 in experiment [1] came to 50.3 µM; in experiment [2] (CellTiter-Glo) it was 42.7 µM; in experiment [3], 100 µM. Besides, the response in experiment [2] (FIG. 2 curve fit) was half-maximal at 38.6 µM (EC50).
